Experimental data from patent US20040127439A1, “Introduction of the wld gene for prevention of axonal degeneration in neurological diseases” (priority 2004, published 2004).
Read-outs that look alike come from different tables or passages of the source.

What was measured:
[1] = test system: DRG neurites; conditions: for Area (DRG neuritic halo) / Length (longest neurite): Vin 0.01 μM, EGTA 2 mM
Procedure: On the day of DRG culture, the dishes are washed twice with PBS buffer (pH 7.4), filled with 550 μl medium and pre-incubated at 37 C for at least 2 hours. Fifteen-day old embryos (E15) are removed from pregnant Sprague-Dawley rats (Charles River), and spinal cords with cervical and thoracic DRGs attached are dissected into Leibovitz L-15 medium (GIBCO). Ganglia are separated from the spinal cord, stripped of their connective tissue sheaths and roots, and are then pooled and washed twice with PBS buffer (pH 7.4). DRGs are plated (4 per dish) in culture media and incubated at 37° C. in 5% carbon dioxide for 4 hours to allow DRGs to attach to the substrate. Medium is then added to bring the total volume to 1 ml. […] Calcium-free medium is prepared in the same manner, replacing MEM with S-MEM (GIBCO).
At the end of the treatment period (see below) DRGs are fixed for 30 minutes with 4% paraformaldehyde. Cultures are then rinsed with 0.1M TBS buffer, and treated sequentially with 3% H2O2, TBS-Triton, and 4% normal goat serum (NGS), each for 30 minutes at room temperature. DRGs are incubated at 4 C overnight in monoclonal antibody to MAP5 (1:500, Sigma). After washing in TBS-Triton, DRGs are incubated for 60 minutes in biotinylated secondary antibody, rinsed with TBS and reacted with avidin-biotin complex solution (ABC; Vector Labs) for one hour. Color is generated by incubation for 10 minutes in diaminobenzidine (DAB) solution, enhanced by addition of 0.025% cobalt chloride and 0.02% nickel ammonium sulfate. Stained tissue is rinsed, air dried and cover-slipped for microscopy with Crystal/Mount (Biomeda).
This method of allowing neuritic extension to proceed before addition of a neurotoxin tests the effect of the toxin on established neurites as opposed to the effect on primary neuritic outgrowth.
After day 5 of culture, the media is changed to that containing the experimental treatment. This date is defined as treatment day 0. Cultures are monitored and imaged daily using video microscopy. […] AK 295 (Z-leu-Abu-(CH2)3-4-morpholinyl, gift of Dr. James Powers, Georgia Institute of Technology), is dissolved in 100% DMSO and is then diluted to its final concentration with culture medium. The final concentration of DMSO is 0.05%. Phenylmethylsulfonyl fluoride (PMSF) is manufactured by and commercially available from Sigma.
After 6 days of treatment (11 days in culture) immunostained DRGs are quantitated for degree of axonal degeneration. Images of the DRGs and neurites are captured onto disk using a computerized video imaging system, and are analyzed using NIH Image version 1.61. DRG areas are calculated by tracing the outside circumference of the remaining culture halo. The length of the longest neurite of each DRG is measured from the center of the DRG to the distal end of the neurite, so that cultures without remaining neurites still have positive values. These quantitative data are subjected to ANOVA, with post-test correction for multiple comparisons.

[2] = test system: axotomized neurites; assay: Wallerian degeneration of axotomized DRG neurites in culture; format: cell-based, rat; conditions: added at the time of axotomy; EGTA 2 mM or AK295 50 μM; 72 hours after axotomy
Procedure: Five-day old cultures with extended neurites are used. Neurites are cut by excising and removing the DRG with a scalpel blade. Care should be taken to remove substantially all neurons within the DRG. At least 1 ganglion/dish was left unaxotomized to serve as a control for that group of ganglia. For experiments involving therapeutic interventions, the media is changed just prior to axotomy to media containing either EGTA (2 mM) or AK295 (50 μM). Cultures are observed daily for 72 hours after axotomy, at which time they are fixed and immunostained.
Stained cultures are scored blindly for degree of axonal degeneration. […] Any fibers with interruptions along their length are scored as degenerated. The number of surviving fibers in each DRG are counted under 200× magnification, and the DRG is given a survival score of 0-3: 0 =no fibers remaining, 1=1-4 fibers remaining, 2=5-9 fibers remaining, 3=10 or more fibers remaining.

[3] = test system: DRG neurites; assay: Effect of treatment modalities on DRG area and neuritic length in control cultures (no vincristine); format: cell-based, rat; conditions: for Area / Length: added to 5-day old cultures, after 6 days of treatment, no vincristine; for effects on neurite growth or survival in control cultures (in words): addition to control cultures
From the text: This date is defined as treatment day 0. Cultures are monitored and imaged daily using video microscopy. […] The final concentration of DMSO is 0.05%.

[4] = Day 3 of treatment, AK295 50 μM
[5] = Day 4 of treatment, AK295 50 μM
[6] = Day 6 of treatment, AK295 50 μM, PMSF 50 μM

| SMILES | prevention of vincristine-induced axonal degeneration (in words) ([1]; AK295 1 μM (not shown)) | prevention of vincristine-induced axonal degeneration (in words) ([1]; AK295 10 μM (not shown)) | prevention of vincristine-induced axonal degeneration (in words) ([1]; AK295 50 μM) | Area (DRG neuritic halo) [1, 4] | Length (longest neurite) [1, 4] | Area (DRG neuritic halo) [1, 5] | Length (longest neurite) [1, 5] | Area (DRG neuritic halo) [1, 6] | Length (longest neurite) [1, 6] | protection against Wallerian degeneration (in words) [2] | Area [3] | Length [3] | effects on neurite growth or survival in control cultures (in words) [3] | protection against vincristine-induced axonal degeneration (in words) ([1]; EGTA 2 mM in standard media) | protection against vincristine-induced axonal degeneration (in words) ([1]; EGTA ≦1 mM in standard media) | protection against vincristine-induced axonal degeneration (in words) ([1]; PMSF 50 μM, day 6) |
| --- | --- | --- | --- | --- | --- | --- | --- | --- | --- | --- | --- | --- | --- | --- | --- | --- |
| CCC(NC(=O)[C@H](CC(C)C)NC(=O)OCc1ccccc1)C(=O)C(=O)NCCCN1CCOCC1 (stereo partly shown) [AK295, Z-leu-Abu-(CH2)3-4-morpholinyl] | ineffective | effective in preventing axonal degeneration | effective in preventing axonal degeneration | 16.61 ± 1.18 (18) mm^2 | 2.65 ± 0.11 mm | 14.77 ± 2.19 (14) mm^2 | 2.45 ± 0.25 mm | 10.34 ± 2.14 (12) mm^2 | 2.05 ± 0.25 mm | as protective as EGTA | 49.18 ± 2.69 mm^2 | 4.80 ± 0.16 mm | no effects on neurite growth or survival | – | – | – |
| O=C(O)CN(CCOCCOCCN(CC(=O)O)CC(=O)O)CC(=O)O [EGTA] | – | – | – | 15.05 ± 1.78 (12) mm^2 | 2.62 ± 0.17 mm | 12.97 ± 0.94 mm^2 | 2.44 ± 0.13 mm | 13.36 ± 1.04 (14) mm^2 | 2.43 ± 0.07 mm | significant protection | 44.40 ± 2.74 mm^2 | 4.74 ± 0.18 mm | no effects on neurite growth or survival | as effective as calcium-free media | ineffective | – |
| O=S(=O)(F)Cc1ccccc1 [PMSF, Phenylmethylsulfonyl fluoride] | – | – | – | – | – | – | – | 0.73 ± 0.16 (43) mm^2 | 0.55 ± 0.06 mm | – | – | – | – | – | – | no protective effects |
